In patent US20260174701A1, “HIGH STRENGTH SINGLE UNIT DOSE FORMULATIONS AND METHODS OF USE THEREOF” (Praxis Precision Medicines, Inc., priority 2023, published 2026):

How the values were obtained:
[1] = test system: animal model of ET; assay: Animal model of ET; settings: in vivo
[2] = target: CaV3.3 (Homo sapiens, UniProt Q9P0X4); assay: In vitro electrophysiology studies; type: cell-based
[3] = target: CaV3.1 (Homo sapiens, UniProt O43497); assay: In vitro electrophysiology studies; type: cell-based
Chain of CaV3.1 (O43497 whole entry): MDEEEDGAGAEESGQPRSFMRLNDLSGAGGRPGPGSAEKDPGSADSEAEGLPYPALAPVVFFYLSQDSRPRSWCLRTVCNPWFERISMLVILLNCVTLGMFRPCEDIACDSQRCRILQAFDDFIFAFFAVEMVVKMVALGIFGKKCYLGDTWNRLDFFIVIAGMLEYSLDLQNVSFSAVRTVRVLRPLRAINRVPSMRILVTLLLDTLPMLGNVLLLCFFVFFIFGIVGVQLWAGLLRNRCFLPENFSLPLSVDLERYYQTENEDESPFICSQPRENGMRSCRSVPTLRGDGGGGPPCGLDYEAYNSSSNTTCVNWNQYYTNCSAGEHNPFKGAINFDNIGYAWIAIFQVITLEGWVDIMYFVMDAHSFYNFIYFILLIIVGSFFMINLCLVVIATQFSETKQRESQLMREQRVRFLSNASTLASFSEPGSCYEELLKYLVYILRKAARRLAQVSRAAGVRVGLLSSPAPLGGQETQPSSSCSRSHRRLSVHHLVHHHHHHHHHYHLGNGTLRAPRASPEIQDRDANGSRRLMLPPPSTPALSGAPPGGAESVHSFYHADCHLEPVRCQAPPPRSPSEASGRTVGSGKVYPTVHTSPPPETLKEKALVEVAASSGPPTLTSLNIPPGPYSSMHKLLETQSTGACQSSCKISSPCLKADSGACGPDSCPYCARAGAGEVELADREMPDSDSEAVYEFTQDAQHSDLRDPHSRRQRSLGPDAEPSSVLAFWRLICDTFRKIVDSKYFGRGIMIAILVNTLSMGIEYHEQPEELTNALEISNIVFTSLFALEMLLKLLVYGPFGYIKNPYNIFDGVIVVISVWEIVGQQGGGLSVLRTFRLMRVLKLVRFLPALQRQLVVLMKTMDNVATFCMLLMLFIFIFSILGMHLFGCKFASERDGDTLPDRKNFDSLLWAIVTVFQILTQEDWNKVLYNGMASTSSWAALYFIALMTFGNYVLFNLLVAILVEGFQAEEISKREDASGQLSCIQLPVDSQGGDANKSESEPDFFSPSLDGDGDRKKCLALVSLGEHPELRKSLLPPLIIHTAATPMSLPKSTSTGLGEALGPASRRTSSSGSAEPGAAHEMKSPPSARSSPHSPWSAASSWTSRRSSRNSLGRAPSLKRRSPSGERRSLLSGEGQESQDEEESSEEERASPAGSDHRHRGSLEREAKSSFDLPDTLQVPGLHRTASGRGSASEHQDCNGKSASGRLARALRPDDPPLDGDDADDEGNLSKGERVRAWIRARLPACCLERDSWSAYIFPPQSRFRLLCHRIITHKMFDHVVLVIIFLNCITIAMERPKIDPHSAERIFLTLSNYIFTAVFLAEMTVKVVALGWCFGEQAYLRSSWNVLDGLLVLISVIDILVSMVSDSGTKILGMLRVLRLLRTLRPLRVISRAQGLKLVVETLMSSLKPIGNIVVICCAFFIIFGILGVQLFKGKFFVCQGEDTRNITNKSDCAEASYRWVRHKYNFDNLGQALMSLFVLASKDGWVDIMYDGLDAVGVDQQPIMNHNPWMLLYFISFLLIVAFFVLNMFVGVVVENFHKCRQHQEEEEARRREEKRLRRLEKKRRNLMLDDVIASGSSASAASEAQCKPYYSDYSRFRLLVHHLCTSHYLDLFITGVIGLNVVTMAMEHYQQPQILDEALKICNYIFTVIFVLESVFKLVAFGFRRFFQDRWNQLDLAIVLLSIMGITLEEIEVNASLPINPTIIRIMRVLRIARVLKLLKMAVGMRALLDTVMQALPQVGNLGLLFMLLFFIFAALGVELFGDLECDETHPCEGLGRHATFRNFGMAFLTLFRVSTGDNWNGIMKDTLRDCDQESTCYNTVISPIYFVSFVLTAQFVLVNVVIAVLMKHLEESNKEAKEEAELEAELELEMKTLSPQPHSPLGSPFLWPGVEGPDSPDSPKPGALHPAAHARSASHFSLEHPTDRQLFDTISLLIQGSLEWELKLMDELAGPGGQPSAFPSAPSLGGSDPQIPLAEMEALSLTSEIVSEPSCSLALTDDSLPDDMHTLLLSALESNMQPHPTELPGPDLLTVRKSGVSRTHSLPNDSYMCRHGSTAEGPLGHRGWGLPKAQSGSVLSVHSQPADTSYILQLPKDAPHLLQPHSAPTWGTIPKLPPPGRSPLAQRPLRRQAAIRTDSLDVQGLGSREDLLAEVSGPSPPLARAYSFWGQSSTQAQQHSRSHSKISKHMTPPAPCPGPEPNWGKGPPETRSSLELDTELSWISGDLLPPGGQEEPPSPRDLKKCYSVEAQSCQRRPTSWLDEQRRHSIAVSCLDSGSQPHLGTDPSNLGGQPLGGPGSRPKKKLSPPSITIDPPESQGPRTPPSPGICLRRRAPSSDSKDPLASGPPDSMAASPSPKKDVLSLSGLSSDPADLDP

Chain of CaV3.3 (Q9P0X4 whole entry): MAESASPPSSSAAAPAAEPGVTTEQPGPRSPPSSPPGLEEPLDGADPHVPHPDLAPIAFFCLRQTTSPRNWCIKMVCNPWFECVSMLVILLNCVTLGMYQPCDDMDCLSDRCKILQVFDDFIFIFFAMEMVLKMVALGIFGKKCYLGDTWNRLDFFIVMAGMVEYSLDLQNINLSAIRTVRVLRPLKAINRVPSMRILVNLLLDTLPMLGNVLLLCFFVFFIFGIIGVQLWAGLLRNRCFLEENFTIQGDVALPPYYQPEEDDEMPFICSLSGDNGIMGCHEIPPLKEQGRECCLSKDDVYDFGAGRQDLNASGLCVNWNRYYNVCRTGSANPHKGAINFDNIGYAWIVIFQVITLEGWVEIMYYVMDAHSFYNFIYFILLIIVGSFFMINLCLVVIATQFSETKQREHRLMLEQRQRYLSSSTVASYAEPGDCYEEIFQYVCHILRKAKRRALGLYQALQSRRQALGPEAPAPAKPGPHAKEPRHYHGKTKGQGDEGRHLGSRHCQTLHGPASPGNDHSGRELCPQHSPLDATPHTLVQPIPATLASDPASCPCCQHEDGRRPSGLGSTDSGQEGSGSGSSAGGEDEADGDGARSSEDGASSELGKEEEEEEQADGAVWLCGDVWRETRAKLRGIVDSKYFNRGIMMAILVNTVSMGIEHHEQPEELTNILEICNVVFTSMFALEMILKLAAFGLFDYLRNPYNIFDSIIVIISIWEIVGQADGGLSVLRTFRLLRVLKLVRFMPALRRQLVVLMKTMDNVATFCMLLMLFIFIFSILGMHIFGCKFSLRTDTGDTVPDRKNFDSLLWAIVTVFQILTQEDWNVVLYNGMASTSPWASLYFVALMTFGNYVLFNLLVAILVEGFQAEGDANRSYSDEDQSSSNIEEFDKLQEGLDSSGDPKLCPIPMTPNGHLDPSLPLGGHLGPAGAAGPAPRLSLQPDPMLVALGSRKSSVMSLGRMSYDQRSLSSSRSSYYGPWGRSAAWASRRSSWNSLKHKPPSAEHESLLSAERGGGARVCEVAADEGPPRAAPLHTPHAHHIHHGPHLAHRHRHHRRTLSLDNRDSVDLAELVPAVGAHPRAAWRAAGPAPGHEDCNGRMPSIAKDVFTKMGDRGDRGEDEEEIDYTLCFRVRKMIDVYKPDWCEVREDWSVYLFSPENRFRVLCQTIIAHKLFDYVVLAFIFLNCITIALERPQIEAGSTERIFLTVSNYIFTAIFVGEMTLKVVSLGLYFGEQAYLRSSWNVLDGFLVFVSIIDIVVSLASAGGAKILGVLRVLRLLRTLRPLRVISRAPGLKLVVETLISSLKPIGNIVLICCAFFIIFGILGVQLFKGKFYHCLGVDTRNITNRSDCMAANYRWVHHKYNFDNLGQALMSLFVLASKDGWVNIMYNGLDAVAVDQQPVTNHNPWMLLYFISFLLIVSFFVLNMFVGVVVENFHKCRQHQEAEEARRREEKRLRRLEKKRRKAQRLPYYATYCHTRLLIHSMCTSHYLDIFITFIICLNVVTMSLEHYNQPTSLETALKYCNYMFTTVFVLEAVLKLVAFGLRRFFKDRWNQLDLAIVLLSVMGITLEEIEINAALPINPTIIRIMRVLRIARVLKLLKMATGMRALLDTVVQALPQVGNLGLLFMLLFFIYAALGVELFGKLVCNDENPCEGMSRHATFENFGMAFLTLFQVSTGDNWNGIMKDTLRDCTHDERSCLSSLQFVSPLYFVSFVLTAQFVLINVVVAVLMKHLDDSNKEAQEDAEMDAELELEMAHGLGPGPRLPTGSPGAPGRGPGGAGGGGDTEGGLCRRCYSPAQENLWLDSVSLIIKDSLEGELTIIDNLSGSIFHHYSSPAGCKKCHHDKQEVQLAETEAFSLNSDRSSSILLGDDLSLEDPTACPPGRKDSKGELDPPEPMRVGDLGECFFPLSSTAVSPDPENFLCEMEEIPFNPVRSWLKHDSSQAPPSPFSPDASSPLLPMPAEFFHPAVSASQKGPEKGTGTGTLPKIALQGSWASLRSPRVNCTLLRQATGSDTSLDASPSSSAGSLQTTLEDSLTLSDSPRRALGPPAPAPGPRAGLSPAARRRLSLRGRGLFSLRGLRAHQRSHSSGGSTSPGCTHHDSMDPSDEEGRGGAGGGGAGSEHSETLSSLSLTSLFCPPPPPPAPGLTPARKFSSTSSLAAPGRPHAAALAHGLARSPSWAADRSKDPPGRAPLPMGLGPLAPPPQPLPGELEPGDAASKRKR

- Potency for T-type Ca2+ channels [2]: nanomolar
- Potency for T-type Ca2+ channels [3]: nanomolar
Compound: CC(C)(C)NC(=O)CN1CCC(CNC(=O)c2cc(F)cc(Cl)c2)CC1.Cl [PRAX-944, N-((1-(2-(tert-butylamino)-2-oxoethyl)piperidin-4-yl)methyl)-3-chloro-5-fluorobenzamide hydrochloride]
- Activity in an animal model of ET [1]: robust activity
